Results from paper PMC5908784, “Extracellular loops 2 and 3 of the calcitonin receptor selectively modify agonist binding and efficacy” (Biochemical Pharmacology, 2018).
Where a chain is given by its changes, count along the chain named. Where a SMILES comes first, the peptide text is derived from it. Bridges are numbered along the chain shown (N, C = ends).

Columns and labels:
Assay in all cases: ERK1/2 phosphorylation
Format in all cases: cell-based
hCTR K366A = biological target: T1, hCTR K366A (Homo sapiens, UniProt P30988, K366A); details: CV1-FlpIn cells, mean ± S.E.M.; for Emax: pERK maximal response; for EC50: pERK, three-parameter logistic fit
T1 construct: c-Myc (N); expressed in transfected cells
T1 sequence (P30988 25-474 K366A): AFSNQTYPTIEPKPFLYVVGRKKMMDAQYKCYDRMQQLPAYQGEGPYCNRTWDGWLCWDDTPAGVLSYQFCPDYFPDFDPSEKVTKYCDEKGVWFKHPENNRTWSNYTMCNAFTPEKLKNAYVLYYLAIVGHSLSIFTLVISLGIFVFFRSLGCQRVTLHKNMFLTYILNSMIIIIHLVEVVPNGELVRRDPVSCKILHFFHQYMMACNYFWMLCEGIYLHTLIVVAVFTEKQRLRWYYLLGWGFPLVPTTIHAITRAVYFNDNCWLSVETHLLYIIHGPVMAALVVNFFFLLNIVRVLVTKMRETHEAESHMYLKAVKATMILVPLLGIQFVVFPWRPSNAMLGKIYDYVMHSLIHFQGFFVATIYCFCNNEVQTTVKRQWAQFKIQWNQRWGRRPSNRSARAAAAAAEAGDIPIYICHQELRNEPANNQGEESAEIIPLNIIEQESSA
Experimental: (§1) Cells (2.5 × 10^4 cells/well) were seeded into 96-well culture plates and incubated overnight. […] Data were normalized to the maximal response elicited by 10% FBS determined at 6 min.
(§2) Data were corrected for radioligand occupancy using the Cheng-Prusoff equation in Prism; as such data are reported as pKi. Emax and EC50 were estimated from concentration-response curves using with a 3-parameter logistic equation in Prism (v7). These values are a composite of functional affinity, efficacy and stimulus response coupling. […] Significance was accepted at P < 0.05.

hCTR L368A = biological target: T2, hCTR L368A (Homo sapiens, UniProt P30988, L368A); details: CV1-FlpIn cells, mean ± S.E.M.; for Emax: pERK maximal response; for EC50: pERK, three-parameter logistic fit
T2 construct: c-Myc (N); expressed in transfected cells
T2 sequence (P30988 25-474 L368A): T1 sequence (P30988 25-474 K366A) with A342K, L344A
Experimental: as §1, §2

hCTR F356A = biological target: T3, hCTR F356A (Homo sapiens, UniProt P30988, F356A); details: CV1-FlpIn cells, mean ± S.E.M.; for Emax: pERK maximal response; for EC50: pERK, three-parameter logistic fit
T3 construct: c-Myc (N); expressed in transfected cells
T3 sequence (P30988 25-474 F356A): T1 sequence (P30988 25-474 K366A) with F332A, A342K
Experimental: as §1, §2

hCTR C289A = biological target: T4, hCTR C289A (Homo sapiens, UniProt P30988, C289A); details: CV1-FlpIn cells, mean ± S.E.M.; for Emax: pERK maximal response
T4 construct: c-Myc (N); expressed in transfected cells
T4 sequence (P30988 25-474 C289A): T1 sequence (P30988 25-474 K366A) with C265A, A342K
Experimental: as §1, §2

hCTR H296A = biological target: T5, hCTR H296A (Homo sapiens, UniProt P30988, H296A); details: CV1-FlpIn cells, mean ± S.E.M.; for Emax: pERK maximal response; for EC50: pERK, three-parameter logistic fit
T5 construct: c-Myc (N); expressed in transfected cells
T5 sequence (P30988 25-474 H296A): T1 sequence (P30988 25-474 K366A) with H272A, A342K
Experimental: as §1, §2

| EC50 (hCTR K366A) [nM] | EC50 (hCTR L368A) [nM] | EC50 (hCTR F356A) [nM] | EC50 (hCTR H296A) [nM] | EC50 (hCTR C289A; pERK, three-parameter logistic fit) [nM] | SMILES | Emax (hCTR K366A) [%] | Emax (hCTR L368A) [%] | Emax (hCTR F356A) [%] | Emax (hCTR C289A) [%] | Emax (hCTR H296A) [%] |
| --- | --- | --- | --- | --- | --- | --- | --- | --- | --- | --- |
| – | – | – | – | – | CC[C@H](C)[C@H](NC(=O)[C@H](C)NC(=O)[C@@H](NC(=O)[C@H](CCC(N)=O)NC(=O)[C@@H]1CCCN1C(=O)[C@H](Cc1ccccc1)NC(=O)[C@@H](NC(=O)[C@H](Cc1c[nH]cn1)NC(=O)[C@H](Cc1ccccc1)NC(=O)[C@H](CCCCN)NC(=O)[C@H](CC(N)=O)NC(=O)[C@H](Cc1ccccc1)NC(=O)[C@H](CC(=O)O)NC(=O)[C@H](CCC(N)=O)NC(=O)[C@@H](NC(=O)[C@H](Cc1ccc(O)cc1)NC(=O)[C@@H](NC(=O)CNC(=O)[C@H](CC(C)C)NC(=O)[C@H](CCSC)NC(=O)[C@@H]1CSSC[C@H](N)C(=O)NCC(=O)N[C@@H](CC(N)=O)C(=O)N[C@@H](CC(C)C)C(=O)N[C@@H](CO)C(=O)N[C@@H]([C@@H](C)O)C(=O)N1)[C@@H](C)O)[C@@H](C)O)[C@@H](C)O)[C@@H](C)O)C(=O)NCC(=O)N[C@H](C(=O)NCC(=O)N[C@@H](C)C(=O)N1CCC[C@H]1C(N)=O)C(C)C [hCT] | 186 ± 16 | 126 ± 7 | 43 ± 3 | 40 ± 8 | 148 ± 8 |
| 40.7 | 85.1 | 182 | 91.2 | – | CC(C)C[C@H](NC(=O)CNC(=O)[C@H](C)NC(=O)[C@H](CC(C)C)NC(=O)[C@H](CCCNC(=N)N)NC(=O)[C@H](Cc1cnc[nH]1)NC(=O)[C@@H](NC(=O)[C@@H](NC(=O)[C@@H]1CSSC[C@H](NC(=O)[C@H](C)N)C(=O)N[C@@H](CC(=O)O)C(=O)N[C@@H]([C@@H](C)O)C(=O)N[C@@H](C)C(=O)N[C@@H]([C@@H](C)O)C(=O)N1)C(C)C)[C@@H](C)O)C(=O)N[C@@H](CC(C)C)C(=O)N[C@@H](CO)C(=O)N[C@@H](CCCNC(=N)N)C(=O)N[C@@H](CO)C(=O)NCC(=O)NCC(=O)N[C@H](C(=O)N[C@H](C(=O)N[C@@H](CCCCN)C(=O)N[C@@H](CC(N)=O)C(=O)N[C@@H](CC(N)=O)C(=O)N[C@@H](Cc1ccccc1)C(=O)N[C@H](C(=O)N1CCC[C@H]1C(=O)N[C@H](C(=O)N[C@@H](CC(N)=O)C(=O)N[C@H](C(=O)NCC(=O)N[C@@H](CO)C(=O)N[C@@H](CCCCN)C(=O)N[C@@H](C)C(=O)N[C@@H](Cc1ccccc1)C(N)=O)C(C)C)[C@@H](C)O)C(C)C)C(C)C)C(C)C [hαCGRP] | 146 ± 17 | 84 ± 16 | 68 ± 11 | – | 77 ± 11 |
| 1.91 | 1.95 | 4.47 | 2.34 | 4.27 | CSCC[C@H](NC(=O)CNC(=O)[C@H](CO)NC(=O)[C@H](Cc1ccccc1)NC(=O)[C@H](CCCNC(=N)N)NC(=O)[C@H](Cc1c[nH]cn1)NC(=O)[C@H](Cc1ccccc1)NC(=O)[C@H](CC(N)=O)NC(=O)[C@H](CC(N)=O)NC(=O)[C@H](CC(C)C)NC(=O)[C@H](CC(N)=O)NC(=O)[C@H](CCCNC(=N)N)NC(=O)[C@H](Cc1c[nH]c2ccccc12)NC(=O)[C@H](Cc1ccc(O)cc1)NC(=O)[C@H](C)NC(=O)[C@H](CO)NC(=O)[C@H](CC(C)C)NC(=O)[C@@H](NC(=O)[C@@H]1CSSC[C@H](N)C(=O)N[C@@H](CO)C(=O)N[C@@H](CC(N)=O)C(=O)N[C@@H](CC(C)C)C(=O)N[C@@H](CO)C(=O)N[C@@H]([C@@H](C)O)C(=O)N1)C(C)C)C(=O)NCC(=O)N[C@@H](Cc1ccccc1)C(=O)NCC(=O)N1CCC[C@H]1C(=O)N[C@@H](CCC(=O)O)C(=O)N[C@H](C(=O)N1CCC[C@H]1C(N)=O)[C@@H](C)O [pCT] (H-CSNLSTCVLSAYWRNLNNFHRFSGMGFGPETP-NH2; disulfide 1-7) | 156 ± 9 | 159 ± 11 | 57 ± 6 | 38 ± 4 | 163 ± 10 |
| – | – | – | – | – | CC(C)C[C@H](NC(=O)[C@H](CC(N)=O)NC(=O)[C@H](CC(N)=O)NC(=O)[C@H](CO)NC(=O)[C@H](CO)NC(=O)[C@H](CCCNC(=N)N)NC(=O)[C@@H](NC(=O)[C@H](CC(C)C)NC(=O)[C@H](Cc1ccccc1)NC(=O)[C@H](CC(N)=O)NC(=O)[C@H](C)NC(=O)[C@H](CC(C)C)NC(=O)[C@H](CCCNC(=N)N)NC(=O)[C@H](CCC(N)=O)NC(=O)[C@@H](NC(=O)[C@H](C)NC(=O)[C@@H]1CSSC[C@H](NC(=O)[C@@H](N)CCCCN)C(=O)N[C@@H](CC(N)=O)C(=O)N[C@@H]([C@@H](C)O)C(=O)N[C@@H](C)C(=O)N[C@@H]([C@@H](C)O)C(=O)N1)[C@@H](C)O)C(C)C)C(=O)NCC(=O)N1CCC[C@H]1C(=O)N[C@H](C(=O)N[C@@H](CC(C)C)C(=O)N1CCC[C@H]1C(=O)N1CCC[C@H]1C(=O)N[C@H](C(=O)N[C@@H](CC(N)=O)C(=O)N[C@H](C(=O)NCC(=O)N[C@@H](CO)C(=O)N[C@@H](CC(N)=O)C(=O)N[C@H](C(=O)N[C@@H](Cc1ccc(O)cc1)C(N)=O)[C@@H](C)O)C(C)C)[C@@H](C)O)C(C)C [rAmy] | 84 ± 11 | 82 ± 8 | 41 ± 5 | – | 82 ± 8 |
| – | – | – | – | – | CC(C)C[C@H](NC(=O)[C@H](CCCCN)NC(=O)CNC(=O)[C@H](CC(C)C)NC(=O)[C@@H](NC(=O)[C@@H]1CSSC[C@H](N)C(=O)N[C@@H](CO)C(=O)N[C@@H](CC(N)=O)C(=O)N[C@@H](CC(C)C)C(=O)N[C@@H](CO)C(=O)N[C@@H]([C@@H](C)O)C(=O)N1)C(C)C)C(=O)N[C@@H](CO)C(=O)N[C@@H](CCC(N)=O)C(=O)N[C@@H](CCC(=O)O)C(=O)N[C@@H](CC(C)C)C(=O)N[C@@H](Cc1c[nH]cn1)C(=O)N[C@@H](CCCCN)C(=O)N[C@@H](CC(C)C)C(=O)N[C@@H](CCC(N)=O)C(=O)N[C@H](C(=O)N[C@@H](Cc1ccc(O)cc1)C(=O)N1CCC[C@H]1C(=O)N[C@@H](CCCNC(=N)N)C(=O)N[C@H](C(=O)N[C@@H](CC(N)=O)C(=O)N[C@H](C(=O)NCC(=O)N[C@@H](CO)C(=O)NCC(=O)N[C@H](C(=O)N1CCC[C@H]1C(N)=O)[C@@H](C)O)[C@@H](C)O)[C@@H](C)O)[C@@H](C)O [sCT] | 136 ± 5 | 140 ± 6 | 72 ± 5 | 64 ± 11 | 152 ± 9 |
